In patent US10118915B2, “Kappa opioid ligands” (The Scripps Research Institute, priority 2012, dated 2018) one finds IC50 data, which are given here for 8 molecules.

pIC50: −log10 of the molar value.

The target of one assay is kappa opioid receptor (OPRK1) (Homo sapiens (Human), UniProt P41145). Briefly: OPRK1 antagonist assay (b-arrestin-2-TEV protease / b-lactamase reporter cell line, EC80 challenge of U-50488). It counts as cell-based.
Sequence of kappa opioid receptor (OPRK1) (P41145 whole entry): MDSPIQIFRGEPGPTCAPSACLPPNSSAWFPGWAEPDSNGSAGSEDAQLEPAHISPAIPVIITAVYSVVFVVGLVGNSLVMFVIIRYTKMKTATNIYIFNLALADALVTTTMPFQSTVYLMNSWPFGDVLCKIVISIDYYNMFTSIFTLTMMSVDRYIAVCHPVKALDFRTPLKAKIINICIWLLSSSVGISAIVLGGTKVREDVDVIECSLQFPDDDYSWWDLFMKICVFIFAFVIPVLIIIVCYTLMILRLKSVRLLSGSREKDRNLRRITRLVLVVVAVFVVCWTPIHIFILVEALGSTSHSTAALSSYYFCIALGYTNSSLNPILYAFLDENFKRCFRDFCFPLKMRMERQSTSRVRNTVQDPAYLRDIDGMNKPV
Settings: not given
A word on the pIC50: it is the negative decadic logarithm of the IC50, by convention in mol/L. As to `COC(=O)c1cc(Br)cnc1NC1CCC(NC2CCCCC2)CC1` (centres unmarked) [C20], the pIC50 was less than 5.00.
In turn, `CC(C)c1noc(-c2cc(Br)cnc2N2CCC(NC3CCCCC3)CC2)n1` [C42] had a pIC50 of less than 5.00.
In turn, `Cc1ccc2nc(N3C[C@@H]4[C@H](C3)[C@H]4NC3CCOCC3)c(-c3nc(C)no3)cc2c1` [C88] had a pIC50 of less than 5.00.

Still in this assay, the particulars now being: antagonist mode vs EC80 U-50488; read-out: IC50.
Take `COC1CN(c2nc3ccccc3cc2C2=NCC(C)O2)CCC1NC1CCCCC1O` (centres unmarked) [compound 258]: the pIC50 was 5.15.
Still for that read-out and setting: then `Cc1cc(C#N)nc(N2CCC(N[C@@H]3CCCC[C@H]3O)CC2)c1C#N` [C11], with less than 5.00; and `Cc1nc(-c2cc3cc(F)ccc3nc2N2CCC(NC3CCCCCC3)CC2)no1` [compound 489], with 6.21; and `CCc1noc(-c2cc3cc(C)ccc3nc2N2CC[C@@H](NC3CCCCC3)[C@H](OC)C2)n1` [compound 335], with 6.95.
On the same count and under the same terms, then `Cc1nc(-c2cc3ccc(F)cc3nc2N2CCC(NC3CCOCC3)CC2)no1` [compound 486], with 5.97.
